Assay results as given in PMC12524621 (2025).

Legend:
Assay in all cases: fluorescence light-up (580/640 nm)
[1] = tested on: CleavedCV30S_1 (m + f) (DNA, aptamer) AACGACCACCGGTGTTTTTT/AAAAAACGCCGTACAGGTAACTAGCGTCGTCGTT; settings: 62.5 mM K+, 50 mM Na+, Mg2+ (concentration not stated); 25 mM Tris-HCl pH 7; fourth best cleavage site
[2] = tested on: G4 antiparallel long-armed binary sensor + analyte (DNA, G4) TTACCCCACCAACTAGCTAATCCCACTTTTTTAGGGTTAGG/GTTAGGGTTAGGGTTTTTTCTGGGCATATCCAATCGCGCAA/TCGGGCCTTGCGCGATTGGATATGCCCAGGTGGGATTAGCTAGTTGGTGGGGTAATGG; settings: 37.5 mM K+, 50 mM Na+, Mg2+ (concentration not stated); 25 mM Tris-HCl pH 7, incubated at 55 °C; analyte 1 µM; S/B 3.3
[3] = tested on: CleavedCV30S_3 (m + f) (DNA, aptamer) AACGACCACCGGTGCGCCGTACAGGTTTTTTT/AAAAAAAACTAGCGTCGTCGTT; settings: 62.5 mM K+, 50 mM Na+, Mg2+ (concentration not stated); 25 mM Tris-HCl pH 7; third best cleavage site
[4] = tested on: G4 parallel short-armed binary sensor + analyte (DNA, G4) AACTAGCTAATCCCACTTTTTTGGGTAGGG/GGGTTGGGTTTTTTCTGGGCATATCCAA/TCGGGCCTTGCGCGATTGGATATGCCCAGGTGGGATTAGCTAGTTGGTGGGGTAATGG; settings: 62.5 mM K+, 50 mM Na+, Mg2+ (concentration not stated); 25 mM Tris-HCl pH 7, incubated at 37 °C; analyte 1 µM; S/B 3
[5] = tested on: CV30S_8 short-armed binary sensor + analyte (DNA, aptamer) AACTAGCTAATCCCACTTTAACGACCACCGGTGCGCCGTATTTTTT/AAAAAACAGGTAACTAGCGTCGTCGTTTTTCTGGGCATATCCAA/TCGGGCCTTGCGCGATTGGATATGCCCAGGTGGGATTAGCTAGTTGGTGGGGTAATGG; settings: 62.5 mM K+, 50 mM Na+, Mg2+ (concentration not stated); 25 mM Tris-HCl pH 7, incubated at 37 °C; analyte 1 µM; S/B 2.2
[6] = tested on: CV30S (Aptamer_CV30S) (DNA, aptamer) AACGACCACCGGTGCGCCGTACAGGTAACTAGCGTCGTCGTT; settings: 62.5 mM K+, 50 mM Na+, Mg2+ (concentration not stated); 25 mM Tris-HCl pH 7, ~22 °C, 1.7 µM each; S/B 7.8
[7] = tested on: CleavedCV30S_8 (m + f) (DNA, aptamer) AACGACCACCGGTGCGCCGTATTTTTT/AAAAAACAGGTAACTAGCGTCGTCGTT; settings: 62.5 mM K+, 50 mM Na+, Mg2+ (concentration not stated); 25 mM Tris-HCl pH 7; second best cleavage site
[8] = tested on: G4 antiparallel short-armed binary sensor + analyte (DNA, G4) AACTAGCTAATCCCACTTTTTTAGGGTTAGG/GTTAGGGTTAGGGTTTTTTCTGGGCATATCCAA/TCGGGCCTTGCGCGATTGGATATGCCCAGGTGGGATTAGCTAGTTGGTGGGGTAATGG; settings: 37.5 mM K+, 50 mM Na+, Mg2+ (concentration not stated); 25 mM Tris-HCl pH 7, incubated at 37 °C; analyte 1 µM; S/B 3.2
[9] = tested on: CV30S_8 long-armed binary sensor + analyte (DNA, aptamer) TTACCCCACCAACTAGCTAATCCCACTTTAACGACCACCGGTGCGCCGTATTTTTT/AAAAAACAGGTAACTAGCGTCGTCGTTTTTCTGGGCATATCCAATCGCGCAA/TCGGGCCTTGCGCGATTGGATATGCCCAGGTGGGATTAGCTAGTTGGTGGGGTAATGG; settings: 62.5 mM K+, 50 mM Na+, Mg2+ (concentration not stated); 25 mM Tris-HCl pH 7, incubated at 55 °C; analyte 1 µM; S/B 2.1
[10] = tested on: CleavedCV30S_2 (m + f) (DNA, aptamer) AACGACCACCGGTGCGCCGTTTTTTT/AAAAAAACAGGTAACTAGCGTCGTCGTT; settings: 62.5 mM K+, 50 mM Na+, Mg2+ (concentration not stated); 25 mM Tris-HCl pH 7; best of eight cleavage sites
[11] = tested on: G4 antiparallel (Aptamer_G4_antiparallel) (DNA, G4) AGGGTTAGGGTTAGGGTTAGGG; settings: 37.5 mM K+, 50 mM Na+, Mg2+ (concentration not stated); 25 mM Tris-HCl pH 7, ~22 °C, 1.7 µM each; S/B 8.7
[12] = tested on: G4 parallel long-armed binary sensor + analyte (DNA, G4) TTACCCCACCAACTAGCTAATCCCACTTTTTTGGGTAGGG/GGGTTGGGTTTTTTCTGGGCATATCCAATCGCGCAA/TCGGGCCTTGCGCGATTGGATATGCCCAGGTGGGATTAGCTAGTTGGTGGGGTAATGG; settings: 62.5 mM K+, 50 mM Na+, Mg2+ (concentration not stated); 25 mM Tris-HCl pH 7, incubated at 55 °C; analyte 1 µM; S/B 3.3
[13] = tested on: G4 parallel (Aptamer_G4_parallel) (DNA, G4) GGGTAGGGCGGGTTGGG; settings: 62.5 mM K+, 50 mM Na+, Mg2+ (concentration not stated); 25 mM Tris-HCl pH 7, ~22 °C, 1.7 µM each; S/B 1.9, poorest of three

binding [1]: yes | binding [2]: yes | binding [3]: yes | binding [4]: yes | binding [5]: yes | binding [6]: yes | binding [7]: yes | binding [8]: yes | binding [9]: yes | binding [10]: yes | binding [11]: yes | binding [12]: yes | binding [13]: yes
SMILES: CN(C)c1ccc(C(=C2C=CC(=[N+](C)C)C=C2)c2ccc(N(C)C)cc2)cc1
